We go through 2 compounds from PMC8945778, “Functional Characterization of Serotonin N-Acetyltransferase in Archaeon Thermoplasma volcanium” (Antioxidants, 2022).

The target of the experiment is T1, TvSNAT (Thermoplasma volcanium, UniProt Q97CT7).
T1 construct: gene TVG0012647
The experiment is described as follows: HPLC of N-acetylserotonin, dose-dependent inhibition of serotonin acetylation. As to conditions: serotonin 0.5 mM; acetyl-CoA 0.5 mM; pH 8.8; 45 °C; suggested alternative substrate; 50% point read by authors, no fit; read-out: SNAT activity decreased to 50%. The format is biochemical.

T1 sequence (Q97CT7 entry or part of it): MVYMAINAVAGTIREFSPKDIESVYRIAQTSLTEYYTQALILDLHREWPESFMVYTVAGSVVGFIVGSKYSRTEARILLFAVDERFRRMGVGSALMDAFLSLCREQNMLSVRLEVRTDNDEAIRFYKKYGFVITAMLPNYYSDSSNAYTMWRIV

For the compound `NC[C@H](O)c1ccc(O)cc1` [octopamine], the IC50 was roughly 500 µM.

On to `NCCCCNCCCN` [spermidine], for which the IC50 is roughly 100 µM.
